10 molecules from ChEMBL document CHEMBL1909046, “DrugMatrix in vitro pharmacology data” can be followed below.

One data set has as its target Cytochrome P450 2C9 (Homo sapiens, UniProt P11712). Conditions: bti-tn-5b1-4. Also: in other assays of this panel Not Active means under 50% inhibition at 10 µM.
The target of data set [1] is T1, Nitric oxide synthase, inducible (Mus musculus, UniProt P29477).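 Also: inhibition of iNOS enzyme activity measured with L-arginine as substrate; in other assays of this panel Not Active means under 50% inhibition at 10 µM.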
T1 sequence (P29477 whole entry): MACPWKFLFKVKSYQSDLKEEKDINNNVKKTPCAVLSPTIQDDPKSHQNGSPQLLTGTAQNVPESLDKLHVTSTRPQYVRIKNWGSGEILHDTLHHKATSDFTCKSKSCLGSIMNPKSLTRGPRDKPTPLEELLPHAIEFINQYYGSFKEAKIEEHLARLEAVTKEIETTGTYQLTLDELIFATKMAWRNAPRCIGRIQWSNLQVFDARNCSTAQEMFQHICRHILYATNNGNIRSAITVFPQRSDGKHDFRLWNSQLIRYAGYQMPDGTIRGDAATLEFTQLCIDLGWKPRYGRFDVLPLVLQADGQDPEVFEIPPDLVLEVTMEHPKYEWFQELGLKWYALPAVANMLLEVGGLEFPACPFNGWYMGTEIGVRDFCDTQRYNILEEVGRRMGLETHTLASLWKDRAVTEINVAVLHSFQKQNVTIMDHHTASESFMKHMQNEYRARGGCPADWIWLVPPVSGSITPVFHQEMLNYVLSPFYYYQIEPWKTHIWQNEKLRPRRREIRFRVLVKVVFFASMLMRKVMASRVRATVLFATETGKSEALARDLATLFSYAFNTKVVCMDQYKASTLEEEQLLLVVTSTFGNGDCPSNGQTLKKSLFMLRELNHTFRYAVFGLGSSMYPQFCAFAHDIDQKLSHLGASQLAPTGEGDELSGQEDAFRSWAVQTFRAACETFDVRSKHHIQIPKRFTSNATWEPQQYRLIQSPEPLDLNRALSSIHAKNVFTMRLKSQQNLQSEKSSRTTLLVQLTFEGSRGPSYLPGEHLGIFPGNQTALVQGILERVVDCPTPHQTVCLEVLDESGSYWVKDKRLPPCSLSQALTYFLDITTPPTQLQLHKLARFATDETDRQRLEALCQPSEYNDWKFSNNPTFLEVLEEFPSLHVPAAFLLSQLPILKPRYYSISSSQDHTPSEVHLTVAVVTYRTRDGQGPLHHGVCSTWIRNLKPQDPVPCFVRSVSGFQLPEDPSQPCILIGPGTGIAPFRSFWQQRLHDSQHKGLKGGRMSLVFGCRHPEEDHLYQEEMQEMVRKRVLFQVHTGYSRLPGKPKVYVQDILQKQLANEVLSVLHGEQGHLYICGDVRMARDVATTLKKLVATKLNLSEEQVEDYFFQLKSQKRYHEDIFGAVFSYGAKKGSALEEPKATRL
Further details: species or system Escherichia coli.

Data set [2] has as its target Kappa-type opioid receptor (Homo sapiens, UniProt P41145). Nature of the data set: DRUGMATRIX: Opiate kappa (OP2, KOP) radioligand binding (ligand: [3H] Diprenorphine). The data set is classed as cell membranes, HEK293, Membrane. The conditions noted are these: hek293; Not Active = under 50% inhibition at 10 µM.
A short description of data set [3]: DRUGMATRIX: Glutamate, NMDA, Agonism radioligand binding (ligand: [3H] CGP-39653). It is filed as cell membranes, Rattus norvegicus, Wistar, Cerebral cortex, Membrane. Conditions: Not Active = under 50% inhibition at 10 µM.
The nature of data set [4]: DRUGMATRIX: Phorbol Ester radioligand binding (ligand: [3H] PDBu). The conditions noted are these: Not Active = under 50% inhibition at 10 µM. The data set is classed as cell membranes, Mus musculus, ICR, Brain, Membrane.
For data set [5], the target named is T2, Type-2 angiotensin II receptor (Homo sapiens, UniProt P50052). Also: in other assays of this panel Not Active means under 50% inhibition at 10 µM.
T2 sequence (P50052 whole entry): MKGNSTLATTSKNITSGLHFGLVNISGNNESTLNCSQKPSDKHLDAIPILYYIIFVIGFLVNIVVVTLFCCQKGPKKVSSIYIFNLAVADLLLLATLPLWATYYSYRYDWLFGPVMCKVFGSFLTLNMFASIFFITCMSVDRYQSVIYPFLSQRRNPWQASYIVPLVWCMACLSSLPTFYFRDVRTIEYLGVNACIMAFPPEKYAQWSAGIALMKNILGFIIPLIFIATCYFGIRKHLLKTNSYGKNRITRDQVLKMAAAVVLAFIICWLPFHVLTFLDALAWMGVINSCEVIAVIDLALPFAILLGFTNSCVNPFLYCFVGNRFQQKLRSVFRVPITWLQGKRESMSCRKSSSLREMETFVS
The data set is classed as cell-based. Conditions: cho-k1.

Data set [6] concerns the target T3, Alpha-1D adrenergic receptor (Homo sapiens, UniProt P25100). Also: in other assays of this panel Not Active means under 50% inhibition at 10 µM.
T3 sequence (P25100 whole entry): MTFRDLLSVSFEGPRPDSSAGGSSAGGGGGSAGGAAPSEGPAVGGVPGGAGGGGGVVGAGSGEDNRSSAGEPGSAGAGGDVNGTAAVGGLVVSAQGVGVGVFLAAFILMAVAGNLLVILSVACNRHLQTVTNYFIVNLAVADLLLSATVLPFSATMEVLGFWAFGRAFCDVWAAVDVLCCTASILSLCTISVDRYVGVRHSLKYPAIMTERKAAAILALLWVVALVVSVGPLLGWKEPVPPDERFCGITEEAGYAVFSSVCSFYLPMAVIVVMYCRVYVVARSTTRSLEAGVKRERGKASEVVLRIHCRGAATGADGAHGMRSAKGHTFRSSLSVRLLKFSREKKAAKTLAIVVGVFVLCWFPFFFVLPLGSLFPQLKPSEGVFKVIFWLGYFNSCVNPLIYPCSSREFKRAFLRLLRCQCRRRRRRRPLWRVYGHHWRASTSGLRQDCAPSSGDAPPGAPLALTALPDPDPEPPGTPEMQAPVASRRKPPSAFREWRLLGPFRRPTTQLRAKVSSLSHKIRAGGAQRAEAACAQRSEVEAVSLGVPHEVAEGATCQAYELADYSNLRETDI
It is filed as cell membranes, HEK293, Membrane.

For a further data set, the target named is T4, Caspase-1 (Homo sapiens, UniProt P29466).
T4 sequence (P29466 whole entry): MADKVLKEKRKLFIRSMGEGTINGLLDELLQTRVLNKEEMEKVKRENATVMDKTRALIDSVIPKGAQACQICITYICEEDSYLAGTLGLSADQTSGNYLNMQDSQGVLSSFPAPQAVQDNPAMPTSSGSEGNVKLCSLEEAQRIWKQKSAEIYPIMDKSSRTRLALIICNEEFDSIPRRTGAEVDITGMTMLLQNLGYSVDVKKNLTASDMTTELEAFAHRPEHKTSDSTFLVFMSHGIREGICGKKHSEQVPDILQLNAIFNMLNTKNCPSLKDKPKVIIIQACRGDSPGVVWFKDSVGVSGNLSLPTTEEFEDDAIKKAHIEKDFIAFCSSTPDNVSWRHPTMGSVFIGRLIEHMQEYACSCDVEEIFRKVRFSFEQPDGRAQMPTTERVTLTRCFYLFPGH
Also noted: species or system Escherichia coli.

Data set [7] can be described thus: DRUGMATRIX: Phosphodiesterase PDE3 enzyme inhibition (substrate: [3H]cAMP + cAMP). The data set is classed as tissue-based, Homo sapiens. The conditions noted are these: platelet; Not Active = under 50% inhibition at 10 µM.

SMILES strings stand for the structures.

Chain of Kappa-type opioid receptor (P41145 whole entry): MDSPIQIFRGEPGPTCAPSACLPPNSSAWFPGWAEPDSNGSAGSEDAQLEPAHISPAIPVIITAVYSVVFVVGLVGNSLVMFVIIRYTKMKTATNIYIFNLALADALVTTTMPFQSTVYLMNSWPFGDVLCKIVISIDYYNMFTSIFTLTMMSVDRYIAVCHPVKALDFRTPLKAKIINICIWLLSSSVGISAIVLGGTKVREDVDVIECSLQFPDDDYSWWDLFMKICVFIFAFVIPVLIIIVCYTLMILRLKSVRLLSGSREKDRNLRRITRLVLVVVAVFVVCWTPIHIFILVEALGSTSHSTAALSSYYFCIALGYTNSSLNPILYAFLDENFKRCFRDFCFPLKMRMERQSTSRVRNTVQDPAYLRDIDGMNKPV
Chain of Cytochrome P450 2C9 (P11712 whole entry): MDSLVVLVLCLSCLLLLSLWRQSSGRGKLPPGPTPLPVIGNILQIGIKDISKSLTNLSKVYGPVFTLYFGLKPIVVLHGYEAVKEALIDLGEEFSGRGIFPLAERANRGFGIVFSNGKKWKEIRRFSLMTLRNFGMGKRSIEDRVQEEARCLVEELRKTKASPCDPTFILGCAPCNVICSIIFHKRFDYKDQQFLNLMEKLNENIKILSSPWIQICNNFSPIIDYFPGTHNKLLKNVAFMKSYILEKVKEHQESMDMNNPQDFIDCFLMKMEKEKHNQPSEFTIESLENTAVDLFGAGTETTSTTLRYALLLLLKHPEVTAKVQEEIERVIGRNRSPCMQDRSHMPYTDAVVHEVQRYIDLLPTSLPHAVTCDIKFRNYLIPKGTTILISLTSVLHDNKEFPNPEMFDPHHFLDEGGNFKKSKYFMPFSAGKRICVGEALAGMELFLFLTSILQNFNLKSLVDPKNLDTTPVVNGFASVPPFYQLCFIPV

In general, IC50 refers to the concentration at which inhibition is half-maximal. In general, Ki refers to a dissociation constant, usually derived from enzyme kinetics or from competition with a known ligand. On to `CNNCc1ccc(C(=O)NC(C)C)cc1` [PROCARBAZINE], for which the IC50 entry (against Cytochrome P450 2C9; in [1]; in data set [2]; in data set [3]; in data set [4]; in [5]) was “Not Active” each time. In addition, the half-maximal inhibitory concentration (IC50) entry (in [6] (hek293); at Caspase-1; in data set [7]) was “Not Active” in each case. Also, the Ki entry (on Cytochrome P450 2C9; in data set [3]; in data set [4]; in [7]) was “Not Active” throughout.

Regarding `Cc1onc(O)c1CC(N)C(=O)O` (racemic) [(R,S)-AMPA], the IC50 result (against Cytochrome P450 2C9; in [1]; in [2]; in [3]; in data set [4]; in [5]) was “Not Active” in each case. Moreover, the IC50 result (in data set [6] (hek293); against Caspase-1; in data set [7]) was “Not Active” each time. Also, the Ki result (on Cytochrome P450 2C9; in [3]; in data set [4]; in data set [7]) was “Not Active” in each case.

As for `Cc1c(O)c(=O)ccn1C` [DEFERIPRONE], the IC50 result (at Cytochrome P450 2C9; in [1]; in data set [2]; in data set [3]; in data set [4]; in data set [5]) was “Not Active” throughout. Also, the IC50 result (in data set [6] (hek293); against Caspase-1; in data set [7]) was “Not Active” throughout. In addition, the Ki entry (at Cytochrome P450 2C9; in [3]; in data set [4]; in data set [7]) was “Not Active” in each case.

Turning to `Nc1ncn([C@@H]2O[C@H](CO)[C@@H](O)[C@H]2O)c(=O)n1` [AZACITIDINE], the IC50 entry (against Cytochrome P450 2C9; in data set [1]; in data set [2]; in [3]; in data set [4]; in data set [5]) was “Not Active” in each case. The IC50 entry (in [6] (hek293); at Caspase-1; in data set [7]) was “Not Active” each time. Moreover, the Ki entry (on Cytochrome P450 2C9; in [3]; in data set [4]; in data set [7]) was “Not Active” in each case.

`CCn1cc(C(=O)O)c(=O)c2cc(F)c(N3CCNCC3)cc21` [NORFLOXACIN]: the IC50 result (against Cytochrome P450 2C9; in data set [1]; in data set [2]; in data set [3]; in data set [4]; in [5]) was “Not Active” throughout. For the same molecule, the half-maximal inhibitory concentration (IC50) entry (in [6] (hek293); against Caspase-1; in data set [7]) was “Not Active” in each case. Moreover, the inhibition constant Ki result (at Cytochrome P450 2C9; in data set [3]; in [4]; in data set [7]) was “Not Active” throughout.

`CN(C)CCCN1c2ccccc2Sc2ccccc21` [PROMAZINE]: the IC50 result in data set [1] was “Not Active”; in [2], “Not Active”; in data set [3], “Not Active”; in [4] it was “Not Active”; in [5] it was “Not Active”; in [6] (read-out: IC50), 13 nM. The IC50 entry (against Caspase-1; in data set [7]) was “Not Active” each time. The Ki result is “Not Active” in data set [3], “Not Active” in data set [4], 6.18 nM in data set [6] (read-out: Ki) and “Not Active” in data set [7].

For the molecule `CN(C)c1nc(N(C)C)nc(N(C)C)n1` [ALTRETAMINE], the IC50 result in data set [1], in data set [2], in data set [3], in data set [4], in [5] and in data set [6] (hek293) was “Not Active” each time. The IC50 entry (on Caspase-1; in [7]) was “Not Active” each time. Also, the Ki entry in data set [3], in data set [4] and in data set [7] was “Not Active” each time.

Take `CCCCc1nc(Cl)c(CO)n1Cc1ccc(-c2ccccc2-c2nnn[nH]2)cc1` [LOSARTAN]: the IC50 entry in data set [1], in data set [2], in data set [3], in data set [4], in data set [5] and in data set [6] (hek293) was “Not Active” throughout. Further, the IC50 result (on Caspase-1; in data set [7]) was “Not Active” each time. Further, the Ki result in [3], in [4] and in [7] was “Not Active” in each case.

For the molecule `N=C(N)NCCN1CCCCCCC1` [GUANETHIDINE], the IC50 result in data set [1], in data set [2], in data set [3], in [4], in data set [5] and in data set [6] (hek293) was “Not Active” in each case. In addition, the IC50 result (on Caspase-1; in data set [7]) was “Not Active” each time. The Ki entry in data set [3], in [4] and in data set [7] was “Not Active” each time.

For `CC(C)(Oc1ccc(Cl)cc1)C(=O)O` [CLOFIBRIC ACID], the IC50 result in [1], in [2], in data set [3], in data set [4], in data set [5] and in data set [6] (hek293) was “Not Active” in each case. The IC50 entry (against Caspase-1; in data set [7]) was “Not Active” in each case. For the same molecule, the Ki result in data set [3], in data set [4] and in data set [7] was “Not Active” throughout.
